Entries after “also recorded” stand apart in the source; their conditions may differ. Where two headings read alike, the source gives them in different places.
How the values were obtained:
in vitro = settings: PAMPA
Description: In the same assay, 10 commercial drugs with known CNS penetration were also tested as positive controls, and their experimental values were compared to reported values (Table 1).

[1] = In vivo BBB penetration experiment, LC-MS/MS of plasma and brain; parameters: species or system CD-1 male mice
Description: Briefly, ten week old CD-1 male mice were purchased from Harlan Laboratories (Frederich, Md.). Compound 9 was diluted to a concentration of 15 mg/mL in a solution with 2% DMSO and 10% Cremophor in PBS, and was administered via oral gavage at a final dosage of 50 mg/kg. Two groups of mice (n=6/group) were used to determine the plasma and brain concentrations of the compound at various time-points. […] Afterwards, the right atrium was removed to allow exsanguination, and the left ventricular apex was cannulated with a 24 G needle and perfused with 30 mL of warm (37° C.) heparinized normal saline solution to enable perfusion of all the organs and complete blood washout. The perfused brains were then collected, rapidly washed in normal saline, blot-dried, and frozen in liquid nitrogen. Brain samples were then analyzed by the LC-MS/MS.
For brain samples, half a brain was weighed and diluted with 1.0 mL of acetonitrile and then mixed well. For plasma samples, 0.01 mL of plasma was diluted with 0.99 mL of acetonitrile and then mixed well. After mixing, samples were centrifuged at 15,000 rpm and the supernatant was transferred to a new tube and evaporated to dryness using spin vacuum. The samples were then reconstituted with an 80:20 solution of 1% acetic acid in acetonitrile: 1% acetic acid in water, and a volume of 0.025 mL was then injected into the LC-MS/MS. The LC/MS/MS method employed positive electrospray ionization (ESI) with a selected reaction monitoring (SRM) mode. Compound 9 was monitored using the following SRM transitions: 381→174, 130, and 159. Chromatographic separation was achieved under gradient conditions using a Waters Acquity® UPLC, with a reversed phase column (Gemini 5u C18 110 Å, 100 mm×2.0 mm; 5 um, Phenomenex Inc., Torrance, Calif.) with a mobile phase composition of 1% acetic acid in water (mobile phase A) and 1% acetic acid in acetonitrile (mobile phase B). The initial gradient consisted of 30% B for 1 min, 30% to 95% B from 1 to 3 min, hold for 1 min at 95% B, and then equilibrate at 30% B for 2.5 min. The total run time was 6.5 min. Results were processed using Analyst 1.5.2 software. Absolute recovery, precision and accuracy, and matrix effects experiments produced an efficient method to continue sample analysis. Calibration curves were made with freshly prepared samples and calculated using peak area versus concentration with a linear or quadratic regression. Accuracy fell in the range of 85% to 115%.
To accurately quantify the amount of 7 that is delivered into brain tissue and rule out the possibility of biased interpretation from vascular trapping, we perfused the mice to wash out the vascular blood completely prior to collecting brain tissues. After oral administration, plasma samples were collected at 0.25, 0.5, 1, and 24 hours, and brain samples were collected at 1 and 24 hours.

[2] = system: amyloid-β oligomers (AβOs) in MC65 cells; experiment: Western blot (6E10) of AβOs production in MC65 cells; assay type: cell-based; settings: MC65 cells after removal of TC, 6E10 antibody
Description: MC65 cells (4×10^5 cells/mL) were treated with indicated compounds for 30 h and then were lysed by sonication in a Tricine buffer solution and boiled for 5 min. Protein samples were collected from the supernatant after centrifugation of the samples at 12,800×g for 5 min, and then quantified using the Bradford method. Equal amounts of protein (20.0 μg) were separated by SDS-PAGE on a gel (Bio-Rad) and transferred onto a PVDF membrane (Bio-Rad). The blots were blocked with 5% milk in TBS-Tween 20 (0.1%) solution at room temperature for 1 h and then probed with the 6E10 antibody overnight at 4° C. The blots were washed twice in TB S-Tween 20 for 15 min, and then incubated with a 1:1000 dilution of horseradish peroxidase-conjugated secondary antibody in a 5% milk/PBS-Tween 20 solution at room temperature for 1 h. After washing twice in TBS-Tween 20 for 15 min, the proteins were visualized by a Western Blot Chemiluminescence Reagent (Thermo Fischer Scientific, Waltham, Mass.). The blots were also probed with antibodies against α-tubulin to ensure equal loading of proteins.

HT22 cells = experiment: Hydrogen peroxide toxicity assay in HT22 cells; assay type: cell-based, mouse; settings: up to 0.3 μM, H2O2 500 μM, 24 h
Description: HT22 cells were seeded in 96-well plates (4×10^3 cells/well) in growth medium and incubated for 24 h at 37° C. The medium was removed and compounds were added at the indicated concentrations in fresh growth medium, and the cells were incubated for another 1 h. H2O2 was then added at a final concentration of 500 μM, and the plates were then incubated for 24 h. Cell viability was assessed by MTT assay as previously described. Values were expressed as a percentage relative to the negative (H2O2-free) control.

MC65 cells = experiment: Neuroprotection assay in MC65 cells (−TC, MTT)
Description: MC65 cells were washed twice with PBS, resuspended in Opti-MEM, and seeded in 96-well plates (4×10^4 cells/well). Indicated compounds were then added, and cells were incubated at 37° C. under +TC or −TC conditions for 72 h. Then, 10 μL of MTT (5 mg/mL in PBS) were added and the cells were incubated for another 4 h. Cell medium was then removed, and the remaining formazan crystals produced by the cellular reduction of MTT were dissolved in DMSO. Absorbance at 570 nm was immediately recorded using a FlexStation® 3 plate reader (Molecular Devices, CA).

Aβ42 = biological target: T1, Aβ42 (Homo sapiens, UniProt P05067); experiment: AFM analysis of Aβ42 fibril and oligomer formation; assay type: biochemical; settings: 1:1 ratio with Aβ42, 24 h
T1 construct: purchased American Peptide, Inc. (Sunnyvale, Calif.)
Description: Aβ42 oligomers and fibrils were prepared based on reported procedures.^43 Indicated compounds were incubated with Aβ42 at a 1:1 ratio for both conditions for 24 h. Samples were loaded on mica, washed extensively with water, and dried overnight at room temperature before AFM analysis. The morphology of the Aβ42 aggregates was assessed using an atomic force microscope (Dimension Icon, Bruker) operating in tapping mode in air. The scan rate was varied between 1 Hz and 0.5 Hz depending on the tracking quality. The silicon tips (Bruker mpp2100-100) have a sharpness of less than 5 nm and a force constant between 3 and 5 N/m along with a resonant frequency rated between […]. All images were taken with 512 points per line, with a 1:1 ratio. Images were processed using Nanoscope analysis software version 1.20 and Image-J (from the National Institutes of Health).

T1 sequence (P05067 672-713 limits assumed): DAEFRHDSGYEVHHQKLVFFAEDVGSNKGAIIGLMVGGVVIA

- Papp (in vitro): 7.9 ± 0.6 ×10⁻⁶ cm/s
- concentration at 1 h ([1]; male, CD-1, mouse, brain, po, 50 mg/kg, perfused mice, n = 6, 1 h, read-out: Brain concentration, 1 h): 555 ± 188 nM
- concentration at 24 h ([1]; male, CD-1, mouse, brain, po, 50 mg/kg, perfused mice, n = 6, 24 h, read-out: Brain concentration, 24 h): 47.4 ± 11.2 nM
- concentration at 15 min ([1]; male, CD-1, mouse, plasma, po, 50 mg/kg, mice, n = 6, 15 min): 773 ± 310 nM
- concentration at 30 min ([1]; male, CD-1, mouse, plasma, po, 50 mg/kg, mice, n = 6, 30 min): 795 ± 301 nM
- concentration at 1 h ([1]; male, CD-1, mouse, plasma, po, 50 mg/kg, mice, n = 6, 1 h, read-out: Plasma concentration, 1 h): 883 ± 350 nM
- concentration at 24 h ([1]; male, CD-1, mouse, plasma, po, 50 mg/kg, mice, n = 6, 24 h, read-out: Plasma concentration, 24 h): 30.5 ± 12 nM
- Plasma concentration, 15 min ([1]; oral 50 mg/kg, mice, n = 6, 15 min): 773.80 ± 309.86 nM
- Plasma concentration, 1 h ([1]; oral 50 mg/kg, mice, n = 6, 1 h): 883.12 ± 350.36 nM
- Plasma concentration, 24 h ([1]; oral 50 mg/kg, mice, n = 6, 24 h): 30.53 ± 11.96 nM
- Brain concentration, 1 h ([1]; oral 50 mg/kg, perfused mice, n = 6, 1 h): 555.40 ± 188.44 nM
- Brain concentration, 24 h ([1]; oral 50 mg/kg, perfused mice, n = 6, 24 h): 47.41 ± 11.19 nM
- inhibition of fibrillization and oligomerization of Aβ42 (AFM) (Aβ42): no inhibition
SMILES: COc1ccc2[nH]cc(CCNC(=O)CC(=O)CCc3ccc(O)cc3)c2c1 [Compound 7, 5-(4-hydroxy-phenyl)-3-oxo-pentanoic acid [2-(5-methoxy-1H-indol-3-yl)-ethyl]-amide]
- BBB penetration after oral administration ([1]; oral 50 mg/kg, mice): confirmed to cross the blood-brain barrier; also recorded: confirming its BBB permeability
- effect on the production of AβOs (tetramers, pentamers, heptamers) [2]: moderate inhibitory effects; also recorded: dose-dependently suppressed
- protection from H2O2-induced cytotoxicity (HT22 cells): no protection
- neuroprotection of MC65 cells from −TC induced cell death (MC65 cells; 0.3 μM, −TC, 72 h, MTT): significant and comparable protection
- EC50 (MC65 cells; MC65, 72 h, read-out: EC50 for neuroprotection of MC65 cells): 27.6 ± 9.4 nM

Source: patent publication US9738605B2, “Hybrid compounds of curcumin and melatonin as neuroprotectants for neurodegenerative disorders” (VIRGINIA COMMONWEALTH UNIVERSITY, priority 2013, dated 2017)
